One data set has as its system HIV-IIIb. The data set can be described thus: Test A: Antiviral assay in MT4 cells. Format: cell-based, HIV-1. The following applies: Human immunodeficiency virus 1, IIIB, MT4, 120 h, read-out: % inhibition at 2 μM, percent inhibition of virus-induced cell killing, from dose response curve at 2 uM drug; MT-4 cells infected with HIV-IIIb, 5 days, CellTiter-Glo.
Another data set can be described thus: in vitro. The settings on record: human, uninfected MT-4 cells, CC50 (nM), same protocol as Test A, CellTiter-Glo. In outline: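 Cytoprotection read-out: CellTiter-Glo chemiluminescence after 5 days at 37 °C of HIV-IIIb-infected MT-4 cells (m.o.i. 0.003) with compound in 10-point 3-fold dilutions, quadruplicate, 10% FBS. Cytotoxicity (CC50) measured identically without virus.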

Results on 22 molecules are retold here after US9540343B2 (Gilead Sciences, Inc., priority 2011, dated 2017).

As for `NC(=O)c1cc(-c2cccnc2[C@H](Cc2cc(F)cc(F)c2)NC(=O)Cn2nc(C(F)(F)F)c3c2CC(F)(F)CC3)ccc1F` [Example 387, (S)-5-(2-(1-(2-(6,6-difluoro-3-(trifluoromethyl)-4,5,6,7-tetrahydro-1H-indazol-1-yl)acetamido)-2-(3,5-difluorophenyl)ethyl)pyridin-3-yl)-2-fluorobenzamide], in the data set with HIV-IIIb, the inhibition at 2 µM amounted to 61%. Moreover, in the data set “in vitro”, the 50% cytotoxic concentration (CC50) at 5 days turned out to be 21200 nM.

In the case of `NC(=O)c1cc(-c2cccnc2[C@H](Cc2cc(F)cc(F)c2)NC(=O)Cc2cc(=O)[nH]c3ccccc23)ccc1F` [Example 201, (S)-5-(2-(2-(3,5-difluorophenyl)-1-(2-(2-oxo-1,2-dihydroquinolin-4-yl)acetamido)ethyl)pyridin-3-yl)-2-fluorobenzamide], the inhibition at 2 µM with HIV-IIIb amounted to 8%. The same molecule gave a half-maximal cytotoxic concentration (CC50) at 5 days in “in vitro” of over 53200 nM.

With `NC(=O)c1cc(-c2cccnc2[C@H](Cc2cc(F)cc(F)c2)NC(=O)Cn2nc3c(c2C(F)F)C2CC2C3O)ccc1F` (stereo partly drawn) [Example 243, 5-(2-((1S)-1-(2-(3-(difluoromethyl)-5-hydroxy-3b,4,4a,5-tetrahydro-2H-cyclopropa[3,4]cyclopenta[1,2-c]pyrazol-2-yl)acetamido)-2-(3,5-difluorophenyl)ethyl)pyridin-3-yl)-2-fluorobenzamide], the inhibition at 2 µM with HIV-IIIb amounted to 33%. In the data set “in vitro”, this molecule gave a CC50 at 5 days of over 53200 nM.

Regarding `NC(=O)c1cc(-c2cccnc2[C@H](Cc2cc(F)cc(F)c2)NC(=O)Cn2nc(C(F)(F)F)c3c2C(=O)CCC3)ccc1F` [Example 273, (S)-5-(2-(2-(3,5-difluorophenyl)-1-(2-(7-oxo-3-(trifluoromethyl)-4,5,6,7-tetrahydro-1H-indazol-1-yl)acetamido)ethyl)pyridin-3-yl)-2-fluorobenzamide], the inhibition at 2 µM in the data set with HIV-IIIb came out at 10%. Also, the half-maximal cytotoxic concentration (CC50) at 5 days in “in vitro” was found to be 29600 nM.

In the case of `COc1cc(C)c(-c2cccnc2C(Cc2cc(F)cc(F)c2)NC(=O)Cc2c[nH]c3ccc(O)cc23)c(C)c1` (centres unmarked) [Example 7, N-(2-(3,5-difluorophenyl)-1-(3-(4-methoxy-2,6-dimethylphenyl)pyridin-2-yl)ethyl)-2-(5-hydroxy-1H-indol-3-yl)acetamide], the inhibition at 2 µM with HIV-IIIb worked out at 18%. Further, in the data set “in vitro”, it took 17600 nM to reach half-maximal cytotoxicity (CC50 at 5 days).

As to `N#Cc1cccc(-c2cccnc2[C@H](Cc2cc(F)cc(F)c2)NC(=O)Cc2c[nH]c3ccc(O)cc23)c1` [Example 38E, (S)—N-(1-(3-(3-cyanophenyl)pyridin-2-yl)-2-(3,5-difluorophenyl)ethyl)-2-(5-hydroxy-1H-indol-3-yl)acetamide], the inhibition at 2 µM with HIV-IIIb was found to be 86%. The molecule also yielded a CC50 at 5 days in the data set “in vitro” of 28600 nM.

For `CC(C)(C)OC(=O)N1C[C@H](OCc2ccccc2)C[C@H]1C(=O)N[C@@H](Cc1cc(F)cc(F)c1)c1ncccc1-c1ccc(F)c(C(N)=O)c1` [Example 145, (2S,4R)-tert-butyl 4-(benzyloxy)-2-((S)-1-(3-(3-carbamoyl-4-fluorophenyl)pyridin-2-yl)-2-(3,5-difluorophenyl)ethylcarbamoyl)pyrrolidine-1-carboxylate], the inhibition at 2 µM in the data set with HIV-IIIb was 0%. This molecule also displayed a CC50 at 5 days in the data set “in vitro” of 22400 nM.

On to `CC1Cc2c(C(F)(F)F)nn(CC(=O)N[C@@H](Cc3cc(F)cc(F)c3)c3ncccc3-c3ccc(F)c(C(N)=O)c3)c2C1` (stereo partly drawn) [Example 234, 5-(2-((1S)-2-(3,5-difluorophenyl)-1-(2-(5-methyl-3-(trifluoromethyl)-5,6-dihydrocyclopenta[c]pyrazol-1(4H)-yl)acetamido)ethyl)pyridin-3-yl)-2-fluorobenzamide], for which, in the data set on HIV-IIIb, the inhibition at 2 µM stood at 73%. This molecule also came in with a CC50 at 5 days in the data set “in vitro” of 15900 nM.

In the case of `CC1CCCc2c1c(C(F)(F)F)nn2CC(=O)N[C@@H](Cc1cc(F)cc(F)c1)c1ncccc1-c1ccc(F)c(C(N)=O)c1` (stereo partly drawn) [Example 272F, 5-(2-((1S)-2-(3,5-difluorophenyl)-1-(2-(4-methyl-3-(trifluoromethyl)-4,5,6,7-tetrahydro-1H-indazol-1-yl)acetamido)ethyl)pyridin-3-yl)-2-fluorobenzamide], the inhibition at 2 µM in the data set with HIV-IIIb worked out at 92%. The CC50 at 5 days in the data set “in vitro” is 14300 nM.

For the molecule `O=C(Cn1nc(C(F)F)c2c1C(F)(F)C1CC21)N[C@@H](Cc1cc(F)cc(F)c1)c1ncccc1-c1ccc2nccnc2c1` (stereo partly drawn) [Example 415, (S)—N-(1-(3-(quinoxalin-6-yl)-pyridin-2-yl)-2-(3,5-difluorophenyl)ethyl)-2-(3-(difluoromethyl)-5,6-dihydro-4,5-(methano)-6,6-difluoro-cyclopenta[c]pyrazol-1(4H)-yl)acetamide], the inhibition at 2 µM in the data set with HIV-IIIb stood at 39%. Moreover, the CC50 at 5 days in “in vitro” stood at 38000 nM.

Take `NC(=O)c1cc(-c2cccnc2[C@H](Cc2cc(F)cc(F)c2)NC(=O)[C@@H]2CCCN2)ccc1F` [Example 175, (S)—N—((S)-1-(3-(3-carbamoyl-4-fluorophenyl)pyridin-2-yl)-2-(3,5-difluorophenyl)ethyl)pyrrolidine-2-carboxamide]: in the data set with HIV-IIIb, the inhibition at 2 µM was 1%. Moreover, the CC50 at 5 days in the data set “in vitro” was over 53000 nM.

As to `NC(=O)c1cc(-c2cccnc2[C@H](Cc2cccc(F)c2)NC(=O)CN2CC(=O)Nc3ccccc32)ccc1F` [Example 264, (S)-2-fluoro-5-(2-(2-(3-fluorophenyl)-1-(2-(3-oxo-3,4-dihydroquinoxalin-1(2H)-yl)acetamido)ethyl)pyridin-3-yl)benzamide], the inhibition at 2 µM with HIV-IIIb was 24%. Also, in the data set “in vitro”, the 50% cytotoxic concentration (CC50) at 5 days was over 53200 nM.

Consider `CCNCc1cn(CC(=O)N[C@@H](Cc2cc(F)cc(F)c2)c2ncccc2-c2ccc(F)c(C(N)=O)c2)nc1C(F)(F)F` [Example 314, (S)-5-(2-(2-(3,5-difluorophenyl)-1-(2-(4-((ethylamino)methyl)-3-(trifluoromethyl)-1H-pyrazol-1-yl)acetamido)ethyl)pyridin-3-yl)-2-fluorobenzamide], for which the inhibition at 2 µM in the data set on HIV-IIIb turned out to be 3%. The CC50 at 5 days in “in vitro” amounted to 23600 nM.

On to `NC(=O)c1cc(-c2cccnc2[C@H](Cc2cc(F)cc(F)c2)NC(=O)C2CCCN2C(=O)C2CCCC2)ccc1F` (stereo partly drawn) [Example 153, N—((S)-1-(3-(3-carbamoyl-4-fluorophenyl)pyridin-2-yl)-2-(3,5-difluorophenyl)ethyl)-1-(cyclopentanecarbonyl)pyrrolidine-2-carboxamide], for which the inhibition at 2 µM with HIV-IIIb stood at 10%. In “in vitro”, this molecule registered a CC50 at 5 days of 17300 nM.

Consider `NC(=O)c1cc(-c2cccnc2[C@H](Cc2cc(F)cc(F)c2)NC(=O)Cn2c(=O)n(C3=CCCCC3)c3ccccc32)ccc1F` [Example 567, (S)-5-(2-(1-(2-(3-cyclohexenyl-2-oxo-2,3-dihydro-1H-benzo[d]imidazol-1-yl)acetamido)-2-(3,5-difluorophenyl)ethyl)pyridin-3-yl)-2-fluorobenzamide], for which the inhibition at 2 µM with HIV-IIIb is 11%. The molecule also had a half-maximal cytotoxic concentration (CC50) at 5 days in “in vitro” of 15800 nM.

In the case of `CC(C)(C)OC(=O)N1[C@@H](c2ccccc2)CC[C@H]1C(=O)N[C@@H](Cc1cc(F)cc(F)c1)c1ncccc1-c1ccc(F)c(C(N)=O)c1` [Example 139, (2S,5R)-tert-butyl 2-((S)-1-(3-(3-carbamoyl-4-fluorophenyl)pyridin-2-yl)-2-(3,5-difluorophenyl)ethylcarbamoyl)-5-phenylpyrrolidine-1-carboxylate], in the data set with HIV-IIIb, the inhibition at 2 µM amounted to 8%. In “in vitro”, the 50% cytotoxic concentration (CC50) at 5 days was 14000 nM.

As to `N#Cc1nn(CC(=O)N[C@@H](Cc2cc(F)cc(F)c2)c2ncccc2-c2ccc(F)c(C(N)=O)c2)c2c1C1CC1C2` (stereo partly drawn) [Example 242D, 5-(2-((1S)-1-(2-(3-cyano-3b,4,4a,5-tetrahydro-1H-cyclopropa[3,4]cyclopenta[1,2-c]pyrazol-1-yl)acetamido)-2-(3,5-difluorophenyl)ethyl)pyridin-3-yl)-2-fluorobenzamide], the inhibition at 2 µM with HIV-IIIb was found to be 97%. The CC50 at 5 days in “in vitro” amounted to 25500 nM.

`COc1cc(C)c(-c2cccnc2C(Cc2cc(F)cc(F)c2)NC(=O)Cn2nc(C(F)(F)F)c3c2CCCC3)c(C)c1` (centres unmarked) [Example 8, N-(2-(3,5-difluorophenyl)-1-(3-(4-methoxy-2,6-dimethylphenyl)pyridin-2-yl)ethyl)-2-(3-(trifluoromethyl)-4,5,6,7-tetrahydro-1H-indazol-1-yl)acetamide]: the inhibition at 2 µM with HIV-IIIb was determined as 20%. The molecule further came in with a CC50 at 5 days in the data set “in vitro” of 15700 nM.

As to `CCOC(=O)c1nn(CC(=O)N[C@@H](Cc2cc(F)cc(F)c2)c2ncccc2-c2ccc(F)c(C(N)=O)c2)c2c1CC1CC2C1` [Example 81D, (S)-5-(2-(2-(3,5-difluorophenyl)-1-(2-(4,5,6,7-tetrahydro-3-carboethoxy-5,7-(methano)indazol-1-yl)acetamido)ethyl)pyridin-3-yl)-2-fluorobenzamide], the inhibition at 2 µM with HIV-IIIb turned out to be 75%. The molecule also had a half-maximal cytotoxic concentration (CC50) at 5 days in the data set “in vitro” of 16700 nM.

Turning to `NC(=O)c1cc(-c2cccnc2[C@H](Cc2cc(F)cc(F)c2)NC(=O)Cc2c[nH]c3ccc(O)cc23)ccc1F` [Example 41, (S)-5-(2-(2-(3,5-difluorophenyl)-1-(2-(5-hydroxy-1H-indol-3-yl)acetamido)ethyl)pyridin-3-yl)-2-fluorobenzamide], the inhibition at 2 µM in the data set on HIV-IIIb amounted to 97%. This molecule also came in with a cytotoxic concentration (CC50) at 5 days in “in vitro” of over 53000 nM.

Regarding `O=C(Cc1c[nH]c2ccc(F)cc12)N[C@@H](Cc1cc(F)cc(F)c1)c1ncccc1-c1cnc2[nH]ccc2c1` [Example 430, (S)—N-(1-(3-(1H-pyrrolo[2,3-b]pyridin-5-yl)pyridin-2-yl)-2-(3,5-difluorophenyl)ethyl)-2-(5-fluoro-1H-indol-3-yl)acetamide], the inhibition at 2 µM in the data set with HIV-IIIb turned out to be 31%. In the data set “in vitro”, this molecule registered a cytotoxic concentration (CC50) at 5 days of 26300 nM.

Take `CN(C)CCNC(=O)c1cccc(-c2cccnc2[C@H](Cc2cc(F)cc(F)c2)NC(=O)Cn2nc(C(F)(F)F)c3c2CCCC3)c1` [Example 401C, (S)-3-(2-(2-(3,5-difluorophenyl)-1-(2-(3-(trifluoromethyl)-4,5,6,7-tetrahydro-1H-indazol-1-yl)acetamido)ethyl)pyridin-3-yl)-N-(2-(dimethylamino)ethyl)benzamide]: the inhibition at 2 µM in the data set with HIV-IIIb came out at 87%. For the same molecule, half-maximal cytotoxicity in “in vitro” (CC50 at 5 days) was put at 9720 nM.
